Experimental data taken from patent US20080107619A1, “Carbohydrate based cellulase inhibitors as feeding stimulants in termites” (University of Florida Research Foundation, Inc., priority 2006, published 2008).

Legend:
[1] = target: β-glucosidase; assay: In vitro β-glucosidase inhibition, pNPG assay (I50 determination); format: biochemical, R. flavipes; settings: foregut/salivary gland/midgut (endogenous) and hindgut (symbiotic) fractions, FIG. 4
Description: (§1) Gut dissections were carried out for cellulase distribution and inhibition studies. For dissections, termites were immobilized on ice, decapitated, and the entire digestive tract removed through a small incision made in the abdominal exoskeleton. For cellulase distribution studies, dissected guts were divided into three regions: (i) salivary gland+foregut, (ii) midgut and (iii) hindgut. For inhibition studies, guts were divided into two major components that included: (i) foregut, salivary gland and midgut, and (ii) hindgut. […]
(§2) Cellulase activity assays were adapted from Han et al. in “Characterization of a bifunctional cellulase and its structural gene,” J. Biol. Chem. 270 (1995) 26012-26019, with optimization for a 96-well microplate format. […] Color was allowed to develop on ice for 15 min before measuring absorbance at 540 nm relative to a glucose standard curve.
The hydrolysis product of both the pNPC and pNPG substrates is p-nitrophenol, which is yellow in color and permits for direct quantification of activity in a kinetic assay. pNPC and pNPG assays were initially incubated at 32° C. for 20 min before measuring the release of the product, p-nitrophenol, at 420 nm. The absorbance of reactions was read every 2 min for 1 hr and activity was determined based on rate of absorbance change. […]

[2] = system: endoglucanase; assay: Post-feeding inhibition of endoglucanase activity in whole-body homogenates; format: in vivo, R. flavipes; settings: after 24 days feeding, various concentrations; FIGS. 11A-11C
Description: Whole body homogenates were used for optimization and post-feeding inhibition studies. Here, 10-15 termite workers were homogenized in 1 to 1.5 ml ice-cold homogenization buffer with a Teflon-glass (Potter-Elvehjem) homogenizer powered by a motorized electric stirrer (Fisher Scientific). After homogenization, both gut region and whole-body preparations were centrifuged at 15,000× g and 4° C. for 15 min. The resulting supernatants from the different gut regions were used directly for subsequent enzyme assays. Supernatants from whole-body homogenates were passed through glass wool to remove excess lipids before proceeding with cellulase activity assays.
Cellulase activity assays were adapted from Han et al. in “Characterization of a bifunctional cellulase and its structural gene,” J. Biol. Chem. 270 (1995) 26012-26019, with optimization for a 96-well microplate format. The model substrates used to test for endoglucanase, exoglucanase and β-glucosidase activities were CMC (FIG. 1A), pNPC (FIG. 1B) and pNPG (FIG. 1C), respectively. The substrate concentration used for CMC was 0.5% (w/v), while pNPG and pNPC were used at 4 mM. All substrates were diluted in homogenization buffer. […] Color was allowed to develop on ice for 15 min before measuring absorbance at 540 nm relative to a glucose standard curve. […]

[3] = target: endoglucanase; assay: In vitro endoglucanase inhibition, CMC assay (I50 determination); format: biochemical, R. flavipes; settings: foregut/salivary gland/midgut (endogenous) and hindgut (symbiotic) fractions, FIG. 4
Description: as §1, §2
The efficacy of the three carbohydrate-based cellulase inhibitors CBI (FIG. 1D), FMG (FIG. 1E) and FMCB (FIG. 1F) was tested against two different gut enzyme sources that included (i) endogenous termite cellulases from salivary gland, foregut and midgut, and (ii) symbiotic cellulases from the hindgut. […] Percent inhibition was calculated relative to methanol controls. […]

[4] = target: T1, Cel7A cellobiohydrolase (exoglucanase) (Trichoderma reesei, UniProt P62694); settings: non-competitive inhibition; Vonhoff et al.; read-out: I50; cited from earlier work
T1 sequence (P62694 18-513): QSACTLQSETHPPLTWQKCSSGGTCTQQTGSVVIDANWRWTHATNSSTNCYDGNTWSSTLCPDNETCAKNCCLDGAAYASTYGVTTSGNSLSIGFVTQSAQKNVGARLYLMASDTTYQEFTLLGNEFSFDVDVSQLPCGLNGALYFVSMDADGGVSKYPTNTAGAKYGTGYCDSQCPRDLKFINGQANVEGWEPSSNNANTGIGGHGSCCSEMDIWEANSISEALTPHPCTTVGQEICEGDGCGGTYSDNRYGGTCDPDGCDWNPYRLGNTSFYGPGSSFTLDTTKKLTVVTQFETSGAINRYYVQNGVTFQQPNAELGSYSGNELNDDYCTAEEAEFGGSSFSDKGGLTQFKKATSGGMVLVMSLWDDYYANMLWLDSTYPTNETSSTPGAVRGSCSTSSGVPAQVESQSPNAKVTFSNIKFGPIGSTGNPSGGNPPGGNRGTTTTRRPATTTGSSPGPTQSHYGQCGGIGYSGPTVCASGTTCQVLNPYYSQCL

Row | Compound | I50 against β-glucosidase activity [1] | endoglucanase activity after feeding, reduction relative to controls [2] | I50 against endoglucanase activity [3] | IC50 [4]
1 | OC[C@@H]1[C@@H](O[C@@H]2O[C@H](CO)[C@@H](O)[C@H](O)[C@H]2O)[C@H](O)[C@@H](O)c2nccn21 [CBI, cellobioimidazole] | I50s in the nM-μM range | significant | virtually no activity | 130 µM
2 | fluoromethyl glucose [FMG] | virtually no inhibitory properties | – | virtually no inhibitory properties | –
